Holding throughout (format): in vivo
The nature of series [1]: Acute toxicity on mice. The note with it: mouse, in vivo, po, 7 days observation. As for the experimental part: (§1) The test is carried out on male and female white mice belonging to the CFLP strain and weighing 18-22 g. The test compound is administered orally and the animals are observed for a period of 7 days. In the groups for each dose half of the animals are male and the other half are female. The animals are kept in a plastic box (39×12×12 cm) on scrapings litter at room temperature. The mice receive standard fodder and tap water ad libitum. The toxicity data are determined by the method of Litchfield-Wilcoxon.
(§2) The test compound is administered in an aqueous solution.

Series [2] deals with tetrabenazine ptosis. Put plainly: Antagonism of tetrabenazine ptosis on mice, p.o. Particulars: for ED50: tetrabenazine 50 mg/kg i.p.
Series [3] relates to reserpine ptosis. The experiment in a line: Antagonism of reserpine ptosis on rats, p.o. Particulars: for ED50: reserpine 2.5 mg./kg. s.c. Here is the method: The animals showing ptosis are counted until the effect decreases. The evaluation is carried out as described in connection with the previous ptosis test (test 3).
The test system of series [4] is tetrabenazine ptosis. Put plainly: Antagonism of tetrabenazine ptosis on rats, p.o. Here is the method:
(3) ANTAGONISM OF TETRABENAZINE PTOSIS, ON MICE AND RATS, P.O. […] The results are evaluated as follows: on the basis of all the measured data an average ptosis is calculated for each group and the deviation from the average of the control group is expressed in percent (inhibition). The ED50 values are calculated from the data thus obtained.

Series [5] concerns aconitine-induced ECG changes. The experiment in a line: animal or person. Particulars: rats. As for the experimental part: The test is carried out according to the modified method of Marmo et al. The test animals are narcotized with ethyl urethane (1.2 g./kg. i.p.). Aconitine is administered intravenously in the form of a bolus injection in a dose of 75 μg./kg. The changes of ECG are followed in standard II outlet 5 minutes after the administration of aconitine. The changes observed are evaluated with the aid of a scale from 0 to 5 points. The test compound is administered either intravenously 2 minutes before the addition of aconitine, or orally 1 hour before the aconitine administration.

Series [6] concerns carrageenin oedema. Put plainly: Antiinflammatory effect on rats (carrageenin paw oedema). Particulars: for ED50: Rattus norvegicus, read-out: Oedema inhibitory effect ED50. Here is the method: Into the planar surface of the hind leg of rats weighing 150-180 g. 0.1 ml. of 1% carrageenin is injected. The volume of the paw is determined before and 3 hours after the administration of the irritating agent with a plethysmometer. The animals are pre-treated with the test compound and the carrier (control), respectively, for an hour. Because of the different solubility properties Tween 80 as auxiliary agent is used.
A general note: In the carrageenan paw model, swelling and tenderness develop within hours.

Series [7] in a line: Acute toxicity on rats. Particulars: rat, in vivo, po, 14 days observation.
For series [8], the system named is mice. The experiment in a line: Acute toxicity on mice. Particulars: p.o., 7 days observation, 10080 min. As for the experimental part: as §1, §2
The subject of series [9] is tremorine-induced tremor. The experiment in a line: Antitremorine effect on mice. Here is the method:
20 mg./kg. of tremorine are administered i.p. to mice whereupon after 45 minutes the induced characteristic tremor is registered. The test compounds are administered orally 1 hour before the addition of tremorine.

The subject of series [10] is rats. The experiment in a line: Acute toxicity on rats. Particulars: p.o., 14 days observation, 20160 min.
[11] abbreviates: Mus musculus, po, read-out: ED50.
[12] abbreviates: Rattus norvegicus, po, read-out: ED50.
Setting [13] is: Rattus norvegicus, iv, i.v. 2 minutes before aconitine 75 μg./kg. i.v.
[14] abbreviates: Rattus norvegicus, po, p.o. 1 hour before aconitine 75 μg./kg. i.v.
Where [15] appears, read: 0.1 ml. of 1% carrageenin, 3 hours, pre-treated for an hour.

Seven compounds from patent publication US4602018A, “Condensed as-triazine derivatives” (Egyt Gyogyszevegyeszeti Gyar, priority 1983, dated 1986) can be followed below.

Usually LD50 stands for the dose at which mortality reaches 50%. The low end stands for a more toxic substance, the high end for a less toxic substance. For orientation: ED50 means the dose that gives a 50% effect, or the effect in half of the subjects.

Read-outs that look alike come from different tables or passages of the source.

`CN(C)CCC=C1c2ccccc2CCc2ccccc21` [Amitriptyline, N,N-dimethyl-3-[dibenzo[a,d]-cycloheptadiene-5-ylidene]-propylamine, reference compound] had an LD50 at 168 h in series [1] of 225 mg/kg. Further, the figures for the ED50 in [2] (setting [11]) and in series [3] (setting [12]) were 12 mg/kg and approximately 140 mg/kg, respectively. Also, the results for the Ther. index in series [3] and in [4] were 3.6 and 46, respectively.
The compound `OC1(c2ccc(Cl)cc2)NC=N[n+]2ccc3ccccc3c21` (centres unmarked) [Compound A, 1-(4-chloro-phenyl)-1-hydroxy-1,2-dihydro-as-triazino[6,1-a]isoquinolinium-ethanesulfonate] registered an LD50 at 168 h in series [1] of 410 mg/kg. The ED50 stood at 0.9 mg/kg in [5] (setting [13]); 40 mg/kg in series [5] (setting [14]); 0.3 mg/kg in series [2]; 24.5 mg/kg in series [6] (setting [15]); 14 mg/kg in series [3] (setting [12]); 0.3 mg/kg in [4]. Also, the Ther. index is given as 32.5 in [5]; 1367 in [2]; 53.1 in [6]; 92.8 in series [3]; 4333 in series [4]. In series [7], this compound showed an LD50 at 336 h of 1300 mg/kg.
For `OC1(c2ccc(Cl)cc2)NC=N[n+]2ccc3ccccc3c21` (centres unmarked) [Compound B, 1-(4-chloro-phenyl)-1-hydroxy-1,2-dihydro-as-triazino[6,1-a]isoquinolinium-chloride], the LD50 in [8] is listed as 560 mg/kg; in [10] it was “about 1100 mg/kg”. Moreover, the Ther. index in series [5] turned out to be 27.5; in series [2], 1867; in series [3], 39.3; in series [9], 93.3; in series [4] it was 1100. Moreover, the ED50 is 1.6 mg/kg in series [5] (i.v. 2 minutes before aconitine 75 μg./kg. i.v.); 30 mg/kg in [5] (p.o. 1 hour before aconitine 75 μg./kg. i.v.); 0.3 mg/kg in [2]; 28 mg/kg in series [3]; 6 mg/kg in series [9] (Mus musculus, po, p.o. 1 hour before tremorine 20 mg./kg. i.p.); 1.0 mg/kg in [4].
Turning to `OC1(c2ccc(Cl)cc2)NC=N[n+]2ccc3ccccc3c21` (centres unmarked) [Compound C, 1-(4-chloro-phenyl)-1-hydroxy-1,2-dihydro-as-triazino[6,1-a]isoquinolinium-bromide], the values for the LD50 in [8] and in series [10] were 590 mg/kg and “about 1030 mg/kg”, respectively. Besides, the Ther. index in series [2] amounted to 203; in [3], 49.0; in [4], 191. Further, the ED50 in [2] worked out at 2.9 mg/kg; in [3], 21 mg/kg; in series [4] it was 5.4 mg/kg.
With `CCN(CC)CC(=O)Nc1c(C)cccc1C` [Lidocain, α-diethylamino-2,6-dimethyl-acetanilide, reference compound], the ED50 came out at 4 mg/kg in [5] (setting [13]) and 120 mg/kg in series [5] (setting [14]). For the same compound, the “Antiarrhythmial effect (in words)” value in [5] (i.v. and p.o.) is “inactive”. Moreover, the “Antiarrhythmial effect (percent in parentheses)” value in series [5] (p.o., at 120 mg./kg.) worked out at 3.5%.
Take `CCCCC1C(=O)N(c2ccccc2)N(c2ccccc2)C1=O` [Phenylbutazon, 4-butyl-1,2-diphenyl-3,5-pyrazolidine-dione]: the Ther. index in [6] is given as 5.3. For the same compound, in [6] (setting [15]), the ED50 was approximately 90 mg/kg.
In series [1], `Clc1ccc(-c2ncn[n+]3ccc4ccccc4c23)cc1` [Reference compound D, 1-(4-chloro-phenyl)-as-triazino[6,1-a]isochinolinium-bromide, reference compound] yielded an LD50 at 168 h of 600 mg/kg. The results for the ED50 in series [2] (setting [11]), in series [3] (setting [12]) and in series [4] (setting [12]) were 3.2 mg/kg, approximately 60 mg/kg and 5.6 mg/kg, respectively. For the same compound, the “Oedema inhibitory effect ED50” value in [6] (setting [15]) is listed as “no effect”. For the same compound, the values for the Ther. index in [3] and in series [4] were 16.7 and 179, respectively. Moreover, the “Antitremorine effect ED50” value in series [9] (p.o. 1 hour before tremorine 20 mg./kg. i.p.) was “inactive”.
